From ChEMBL document CHEMBL4825752, “1, 2-Dihexadecanoyl-sn-glycero-3-phosphoethanolamin (DPPE), doxorubicin and folic acid conjugated micelles for cancer management in tumor bearing BALB/c mice” (Bioorg Med Chem Lett, 2021)

Key:
[1] = AUC(0 to t) in single iv dosed BALB/c mouse by HPLC analysis; assay type: ADME, organism-based; conditions: in vivo
[2] = AUC(0 to infinity) in single iv dosed BALB/c mouse by HPLC analysis; assay type: ADME, organism-based; design: time infinity, route intravenous; conditions: in vivo
[3] = AUMC(0 to t) in single iv dosed BALB/c mouse by HPLC analysis; assay type: ADME, organism-based; conditions: in vivo
[4] = AUMC(0 to infinity) in single iv dosed BALB/c mouse by HPLC analysis; assay type: ADME, organism-based; conditions: in vivo
[5] = Half life in single iv dosed BALB/c mouse by HPLC analysis; assay type: ADME, organism-based; conditions: in vivo
[6] = Mean residence time in single iv dosed BALB/c mouse by HPLC analysis; assay type: ADME, organism-based; conditions: in vivo
[7] = Biodistribution in liver of iv dosed tumor bearing BALB/c mouse; assay type: ADME, organism-based; conditions: in vivo
[8] = Biodistribution in kidney of iv dosed tumor bearing BALB/c mouse; assay type: ADME, organism-based; conditions: in vivo
[9] = Biodistribution in heart of iv dosed tumor bearing BALB/c mouse; assay type: ADME, organism-based; conditions: in vivo
[10] = Biodistribution in spleen of iv dosed tumor bearing BALB/c mouse; assay type: ADME, organism-based; conditions: in vivo
[11] = Toxicity in tumor bearing BABL/c mouse assessed as median survival time at 5 mg/kg, iv (reference value: 7.5 day); assay type: organism-based; conditions: in vivo, 180 h
[12] = Toxicity in rat liver assessed as microvesicular steatosis by histopathological analysis; assay type: tissue-based
[13] = Toxicity in rat liver assessed as hepatocytes degeneration by histopathological analysis
[14] = Biodistribution in blood of single iv dosed tumor bearing BALB/c mouse; assay type: ADME, organism-based; conditions: in vivo
[15] = Toxicity in rat heart assessed as myocardial cell degeneration by histopathological analysis; assay type: tissue-based
[16] = Toxicity in rat heart assessed as myocardial necrosis by histopathological analysis; assay type: tissue-based; conditions: in vivo
[17] = Toxicity in rat heart assessed as haemorrhage by histopathological analysis; assay type: tissue-based; conditions: in vivo
[18] = Toxicity in rat skeletal muscle assessed as widening of endomysium by histopathological analysis; assay type: tissue-based, Skeletal muscle tissue; conditions: in vivo
[19] = Toxicity in rat skeletal muscle assessed as infiltration of inflammatory cells by histopathological analysis; assay type: tissue-based, Skeletal muscle tissue
[20] = Toxicity in rat kidney assessed as epithelial degeneration by histopathological analysis; assay type: tissue-based; conditions: in vivo
[21] = Toxicity in rat kidney assessed as tubular degeneration by histopathological analysis; assay type: tissue-based; conditions: in vivo
[22] = Toxicity in rat kidney assessed as tubular necrosis by histopathological analysis; assay type: tissue-based; conditions: in vivo
[23] = Toxicity in rat kidney assessed as glomerular necrosis by histopathological analysis; assay type: tissue-based; conditions: in vivo
[24] = Toxicity in rat kidney assessed as congestion of glomeruli blood vessels by histopathological analysis; assay type: tissue-based; conditions: in vivo

`COc1cccc2c1C(=O)c1c(O)c3c(c(O)c1C2=O)C[C@@](O)(C(=O)CO)C[C@@H]3O[C@H]1C[C@H](N)[C@H](O)[C@H](C)O1` [DOXORUBICIN] gave an AUC(0-t) [1] of 11400 ng·h/mL, an AUC(0-inf) [2] of 10400 ng·h/mL and an AUMCt [3] of 29.45 ug/ml.hr^2. The AUMC [4] was 30.25 ug/ml.hr^2, the t1/2 [5] was 2.09 h and the MRT [6] was 3.1 h. For the same compound, the Drug uptake [7] was “Active”, the Drug uptake [8] was “Active” and the Drug uptake [9] was “Active”. For the same compound, the Drug uptake [10] was “Active”, the Activity [11] was “Non-Toxic” and the MST [11] was 40 days. For the same compound, the Activity [12] was “Toxic”, the Activity [13] was “Toxic” and the Drug uptake [14] was “Active”. For the same compound, the Activity [15] was “Toxic”, the Activity [16] was “Toxic” and the Activity [17] was “Toxic”. For the same compound, the Activity [18] was “Toxic”, the Activity [19] was “Toxic” and the Activity [20] was “Toxic”. The Activity [21] was “Toxic”, the Activity [22] was “Toxic” and the Activity [23] was “Toxic”. For the same compound, the Activity [24] was “Toxic”.
